For one data set, the system named is T1, La-WT:fD1-RNA complex.
T1 construct: His; made in house; host or cells: E. coli BL21
Description: EMSA, compound competition, La-WT:fD1. In kind it is binding, human. The note with it: La-WT 60 nM, fD1 50 nM. On the procedure: 12% native TBE polyacrylamide gels were prepared in a Mini-PROTEAN Tetra Handcast System (BioRad). The gel was pre-run for 30 min at 140 V in 1x TBE buffer (45 mM Tris/HCl pH 8.5, 45 mM boric acid, 1 mM EDTA). To prepare the RNA-mix, fluorescence labeled RNA oligoribonucleotides (oligos) were diluted in fluorescence polarization buffer (20 mM Tris/HCl (pH 7.4), 150 mM NaCl, 3.0 mM MgCl2, 0.5 mM EDTA, 0.05% (v/v) IGEPAL), mixed for 10 min at 80°C, and then immediately placed on ice for at least 5 min. All RNA oligos were used at a final concentration of 50 nM. Recombinant La protein was diluted in D-buffer (20 mM Tris/ HCl (pH 7.4), 150mM NaCl, 3mM MgCl2, 0.5mM EDTA, 5% glycerol) and placed on ice until use.
La titration was performed at final concentrations of 20, 40, 60, 100, 200, 300, 400, 500, 600 nM La. Three different La concentrations were used for compound studies: 60 nM for fD1 RNA, 200 nM for fPolyU RNA, and 150 nM for TOPf RNA studies. Two μl of diluted compound (diluted in 100% DMSO) or 2 μl 100% DMSO (control reaction) was combined with 8 μl La-mix in a 96-well plate. 10 μl RNA-mix was added, mixed for 2 min, and incubated for 10 min at RT in the dark. Final concentrations in the reaction: 18 mM Tris/HCl (pH 7.4), 135 mM NaCl, 2.7 mM MgCl2, 0.45 mM EDTA, 0.025% (v/v) IGEPAL, 2% glycerol, 10% DMSO). Samples were loaded onto the pre-run gel without any loading buffer. Gels were run at 160 V for 40 min in the dark. The gels were carefully transferred to a clear plastic wrap and scanned using a Typhoon FLA900 imager. The La-RNA complex (La-RNP) formation was quantified using the ImageQuant TL software.
Next we used our established EMSA to test whether compound C2 and C6 can compete against the three RNA oligos: fD1, fPolyU, and TOPf. All of the EMSA reactions were loaded in the following order: lane 1 contains the RNA oligo alone; lane 2 contains the RNA oligo plus La protein at concentration that shifts 50% of the RNA oligo (positive control); lanes 3–9 contain the RNA oligo, La protein and decreasing concentrations of the compound; and lane 10 contains the RNA oligo and the highest compound concentration (negative control).
A general note: In EMSA bound probe runs differently from free probe, usually more slowly.

Data set [1] deals with SCC 22B cells. As to the kind of experiment: Cell toxicity, CyQUANT cell number, SCC 22B. In kind it is cell-based, human. As to conditions: for effect on SCC 22B cell numbers: 48 h, 12.5-150 μM. As to the method:
(§1) Normal fibroblast MRC5 and human embryonic kidney HEK293 cells were purchased from ATCC. Head and neck squamous cell carcinoma cell lines UM-SCC 22A (SCC 22A) and UM-SCC 22B (SCC 22B) were described elsewhere. MRC5 cells were cultured in EMEM plus 10% FBS; SCC 22A, SCC 22B, and HEK293 cells were cultured in advanced DMEM (Gibco) containing 2 mM L-glutamine (Life Technology) and 10% FBS. All cell lines were tested for mycoplasma contamination by applying a MycoSensor PCR Assay kit according to the manufacturer’s instructions (Agilent Technologies).
(§2) To test for cell toxicity the compounds were dissolved in 100% DMSO to a concentration of 100 mM. Subsequently, compounds were diluted in media to 10 mM (10% DMSO), 1 mM (1% DMSO) and tested at 150, 125, 100, 75, 50, 25 μM in SCC 22B and MRC5 cells. To reach this concentration compounds (stock 1 mM, 1% DMSO) were diluted in the cell culture dish (96-well format, 100 μl final volume) as follows: 150 μM = 6.7 fold (final DMSO: 0.15%); 125 μM = 8.0 fold (final DMSO: 0.125%); 100 μM = 10 fold (final DMSO: 0.1%); 75 μM = 13.3 fold (final DMSO: 0.075%); 50 μM = 20 fold (final DMSO: 0.05%); and 25 μM = 40 fold (final DMSO: 0.025%). As a control the highest DMSO concentration of 0.15% was used. Cells were cultured in appropriate media (see above) for 48h. Subsequently, cells were washed twice with 1x PBS and quantified after staining with fluorescence dye (CyQUANT®, Life Technologies). For this experiments 3x10^4 of MRC5 and 1x10^4 SCC 22B cells were plate the day before the experiment.

In the next data set the test system is MRC5 cells. As to the kind of experiment: Cell toxicity, CyQUANT cell number, MRC5. The data set is classed as cell-based, human. As to conditions: 48 h, up to 150 μM. As to the method:
as §1, §2

Data set [2] relates to SCC 22B cells. As to the kind of experiment: Cisplatin sensitization, CyQUANT, SCC 22B. The data set is classed as cell-based, human. The note with it: SCC 22B. As to the method: To test whether compound C2.01 sensitizes cells for cisplatin, cells were treated with 0.2% DMSO alone, cisplatin at 4, 8, 16, 32 or 64 μM concentration alone or in combination with 50 μM compound C2.01. The half maximal inhibitory concentration (IC50) of cisplatin was determined by treating SCC 22B cells with increasing cisplatin (Selleckchem) concentrations or vehicle (DMSO) for 48 h (96-well format) as described recently. For this experiments 1x10^4 SCC 22B cells were plated the day before the experiment. DMSO or C2.01 was added to a final concentration of DMSO (0.05%) and C2.01 (50 μM). Six hours later the different cisplatin concentrations were added. The highest DMSO concentration of 0.25% was used in the control for cisplatin and C2.01 double treatment. Subsequently, cells were washed twice with 1x PBS and quantified after staining with fluorescence dye (CyQUANT®, Life Technologies) 48 after the initial C2.01 treatment.

For another data set, the system named is SCC 22A cells. Further details: method as in PMID 27105491. As to conditions: used as treatment concentration, read-out: cisplatin IC50; cited from earlier work.
Data set [3] addresses T2, La-WT (La autoantigen, LARP3) (human, UniProt P05455 1-408).
T2 sequence: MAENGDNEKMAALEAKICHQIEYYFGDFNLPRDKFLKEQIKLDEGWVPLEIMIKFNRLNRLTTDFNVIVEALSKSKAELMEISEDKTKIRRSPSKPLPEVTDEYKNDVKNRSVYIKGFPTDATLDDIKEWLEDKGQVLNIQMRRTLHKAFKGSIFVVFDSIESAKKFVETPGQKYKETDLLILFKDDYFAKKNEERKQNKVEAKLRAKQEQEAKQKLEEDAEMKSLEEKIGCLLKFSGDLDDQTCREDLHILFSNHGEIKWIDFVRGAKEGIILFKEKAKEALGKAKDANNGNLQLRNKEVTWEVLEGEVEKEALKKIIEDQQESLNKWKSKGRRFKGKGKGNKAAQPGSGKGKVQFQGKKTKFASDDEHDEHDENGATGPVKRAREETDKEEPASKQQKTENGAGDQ
Description: EMSA; EMSA: about 20 mM Tris-HCl pH 7.4, 150 mM NaCl, 3 mM MgCl2, 0.5 mM EDTA, IGEPAL, glycerol, 50 nM RNA, RT 10 min (with compounds: 18 mM Tris, 135 mM NaCl, 2.7 mM MgCl2, 0.45 mM EDTA, 0.025% IGEPAL, 2% glycerol, 10% DMSO); FP: 20 mM Tris-HCl pH 7.5, 3 mM MgCl2, 0.5 mM EDTA, 150 mM NaCl, 0.05% IGEPAL, 100 ug/ml BGG, RT 15 min. The note with it: protein: recombinant, tags: His.

Another data set deals with T3, La-RRM1+2 (human, UniProt P05455 111-348).
T3 sequence: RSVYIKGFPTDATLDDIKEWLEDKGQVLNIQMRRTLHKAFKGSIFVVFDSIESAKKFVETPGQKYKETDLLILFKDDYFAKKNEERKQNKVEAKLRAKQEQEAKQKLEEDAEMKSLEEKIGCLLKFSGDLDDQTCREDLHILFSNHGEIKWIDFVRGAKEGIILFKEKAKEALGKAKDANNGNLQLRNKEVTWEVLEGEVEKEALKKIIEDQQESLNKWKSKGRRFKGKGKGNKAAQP
The description is as above. The note with it: protein: recombinant, tags: His.

The target of data set [4] is T2, La-WT (La autoantigen, LARP3). Description: competition; EMSA vs TOPf; EMSA: about 20 mM Tris-HCl pH 7.4, 150 mM NaCl, 3 mM MgCl2, 0.5 mM EDTA, IGEPAL, glycerol, 50 nM RNA, RT 10 min (with compounds: 18 mM Tris, 135 mM NaCl, 2.7 mM MgCl2, 0.45 mM EDTA, 0.025% IGEPAL, 2% glycerol, 10% DMSO); FP: 20 mM Tris-HCl pH 7.5, 3 mM MgCl2, 0.5 mM EDTA, 150 mM NaCl, 0.05% IGEPAL, 100 ug/ml BGG, RT 15 min. As to conditions: protein: recombinant; tags: His; label: none.

Take `O=C(O)c1ccccc1C(=O)c1ccc2ccccc2c1O` [C2.02, 2-(1-hydroxy-2-naphthoyl)benzoic acid]: the “competition for La:fD1 interaction (EMSA), in words” value (“competition for La:fD1 interaction” below) in the data set with La-WT:fD1-RNA complex is reported as “lower concentration”. The “effect on SCC 22B cell numbers” value in the data set on SCC 22B cells [1] is “no effect”. Also, the “toxic effect on MRC5 cells (normal fibroblasts)” value (“toxic effect on MRC5 cells” below) in the data set on MRC5 cells was “toxic effect”.

Turning to `CC(C)COC(=O)c1ccc2c(c1)C1C=CCC1C(C(=O)O)N2` (centres unmarked) [C6.01, 8-(isobutoxycarbonyl)-3a,4,5,9b-tetrahydro-3H-cyclopenta[c]quinoline-4-carboxylic acid], the “competition for La:fD1 interaction” value with La-WT:fD1-RNA complex was “slightly lower concentrations than C6.00”. The “effect on SCC 22B cell numbers” value with SCC 22B cells [1] is on record as “reduced SCC 22B cell numbers even at low concentrations”. In addition, the “selectivity: cancer cell numbers compared to effect on normal MRC5 cells” value in the data set with SCC 22B cells [1] (SCC 22B versus MRC5, 48 h) is given as “preferentially reduced cancer cell numbers”. For the same molecule, in the data set on MRC5 cells, the “toxic effect on MRC5 cells” value is on record as “toxic effect”.

Take `N.N.[Cl][Pt][Cl]` [cisplatin]: the IC50 was 18000 nM in the data set on SCC 22B cells [2] (pretreatment with 50 μM C2.01, 48 hours); 32000 nM in the data set with SCC 22B cells [2] (vehicle (DMSO) pretreatment, 48 hours); 12000 nM with SCC 22A cells.

Consider `CCCCOC(=O)c1ccc2c(c1)C1C=CCC1C(C(=O)O)N2` (centres unmarked) [C6.02, 8-(butoxycarbonyl)-3a,4,5,9b-tetrahydro-3H-cyclopenta[c]quinoline-4-carboxylic acid], for which, in the data set on La-WT:fD1-RNA complex, the “competition for La:fD1 interaction” value was “slightly lower concentrations than C6.00”. The “effect on SCC 22B cell numbers” value in the data set on SCC 22B cells [1] is on record as “reduced SCC 22B cell numbers even at low concentrations”. Also, the “toxic effect on MRC5 cells” value in the data set on MRC5 cells is recorded as “toxic effect”.

Regarding UGCUGUUUU (ssRNA) [fPolyU], the Kd in data set [3] (no structure predicted) is 138 ± 12.6 nM. Also, in the data set with La-RRM1+2 (no structure predicted), the binding result is given as “no binding”.

Consider GGCCCUUUUCCCACCCCCUAGCGCCGCUGGGCCU (ssRNA) [TOP-mu2], for which the binding result in data set [4] is reported as “binds”.

Turning to CCCUUUUCCCACCCCCUAGCGCCGCUGGGCCU (structured_RNA) [TOPf], the Kd in data set [3] (mfold predicted structure) is 147 ± 35.1 nM.

Turning to CCCUUUUCCCACCCCCUAGCGCCGCUGGGCCU (structured_RNA, 5' m7G cap) [capTOPf], in data set [3], the Kd was found to be 183 ± 15.3 nM.

Regarding GCUGCCCAGGAAGAGCCCCAGCCAUGGAACACCAGCUCCUGUGCUGC (structured_RNA) [fD1], the Kd in data set [3] (hairpin (mfold prediction)) is 85 ± 7.5 nM; with La-RRM1+2 (hairpin (mfold prediction)), 81.7 ± 12.6 nM.

By IC50 is commonly meant the concentration needed to halve the response being measured. As usually defined, the Kd is the free concentration of one partner at which half of the binding sites on the other are occupied at equilibrium, for simple one-to-one binding.

These data come from PMC5349447, “Applying a high-throughput fluorescence polarization assay for the discovery of chemical probes blocking La:RNA interactions in vitro and in cells” (PLoS ONE, 2017).
